Test results taken from the supplement of paper PMC10307832.

Columns and labels:
Test in all cases: relative viability (nuclei count vs DMSO), 5 days (fraction); higher = more cells survive
[1] = tested on: 201T
Outline: (§1)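 Relative viability equals treated-well nuclei counts divided by vehicle-well nuclei counts. Counts came from 4× images of lung cancer cell lines grown in 1536-well plates for 5 days after pin-tool dosing on the day after seeding. Dosing used one drug alone or a fixed anchor-drug dose plus five library-drug doses (not always all listed) in √10 steps, and values are medians of duplicate plates.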

[2] = tested on: BEN
Outline: as §1

[3] = tested on: CAL-12T
Outline: as §1

[4] = tested on: HCC-827
Outline: as §1

[5] = tested on: LCLC-103H
Outline: as §1

[6] = tested on: LCLC-97TM1
Outline: as §1

[7] = tested on: LXF-289
Outline: as §1

[8] = tested on: NCI-H1395
Outline: as §1

[9] = tested on: NCI-H1437
Outline: as §1

[10] = tested on: NCI-H1650
Outline: as §1

[11] = tested on: NCI-H1792
Outline: as §1

Cc1sc2c(c1C)C(c1ccc(Cl)cc1)=N[C@@H](CC(=O)OC(C)(C)C)c1nnc(C)n1-2 [JQ1] + N=C(N)NC(=N)NCCc1ccccc1 [Phenformin] (partner 250 µM)
relative viability ([1]; first compound 0.04 µM): 0.47 | relative viability ([1]; first compound 0.1265 µM): 0.415 | relative viability ([1]; first compound 0.4 µM): 0.408 | relative viability ([1]; first compound 1.265 µM): 0.377 | relative viability ([1]; first compound 4 µM): 0.344 | relative viability ([2]; first compound 0.04 µM): 0.273 | relative viability ([2]; first compound 0.1265 µM): 0.296 | relative viability ([2]; first compound 0.4 µM): 0.303 | relative viability ([2]; first compound 1.265 µM): 0.309 | relative viability ([2]; first compound 4 µM): 0.215 | relative viability ([3]; first compound 0.04 µM): 0.522 | relative viability ([3]; first compound 0.1265 µM): 0.443 | relative viability ([3]; first compound 0.4 µM): 0.42 | relative viability ([3]; first compound 1.265 µM): 0.253 | relative viability ([3]; first compound 4 µM): 0.284 | relative viability ([4]; first compound 0.04 µM): 0.395 | relative viability ([4]; first compound 0.4 µM): 0.349 | relative viability ([4]; first compound 1.265 µM): 0.468 | relative viability ([4]; first compound 4 µM): 0.449 | relative viability ([5]; first compound 0.04 µM): 0.345 | relative viability ([5]; first compound 0.1265 µM): 0.308 | relative viability ([5]; first compound 0.4 µM): 0.371 | relative viability ([5]; first compound 1.265 µM): 0.268 | relative viability ([5]; first compound 4 µM): 0.28 | relative viability ([6]; first compound 0.04 µM): 0.423 | relative viability ([6]; first compound 0.1265 µM): 0.42 | relative viability ([6]; first compound 0.4 µM): 0.446 | relative viability ([6]; first compound 1.265 µM): 0.328 | relative viability ([6]; first compound 4 µM): 0.203 | relative viability ([7]; first compound 0.04 µM): 0.518 | relative viability ([7]; first compound 0.1265 µM): 0.474 | relative viability ([7]; first compound 0.4 µM): 0.444 | relative viability ([7]; first compound 1.265 µM): 0.323 | relative viability ([7]; first compound 4 µM): 0.316 | relative viability ([8]; first compound 0.04 µM): 0.439 | relative viability ([8]; first compound 0.1265 µM): 0.417 | relative viability ([8]; first compound 0.4 µM): 0.478 | relative viability ([8]; first compound 1.265 µM): 0.455 | relative viability ([8]; first compound 4 µM): 0.396 | relative viability ([9]; first compound 0.04 µM): 0.274 | relative viability ([9]; first compound 0.1265 µM): 0.267 | relative viability ([9]; first compound 0.4 µM): 0.279 | relative viability ([9]; first compound 1.265 µM): 0.222 | relative viability ([9]; first compound 4 µM): 0.271 | relative viability ([10]; first compound 0.04 µM): 0.309 | relative viability ([10]; first compound 0.1265 µM): 0.304 | relative viability ([10]; first compound 0.4 µM): 0.182 | relative viability ([10]; first compound 1.265 µM): 0.118 | relative viability ([10]; first compound 4 µM): 0.137 | relative viability ([11]; first compound 0.04 µM): 0.323 | relative viability ([11]; first compound 0.1265 µM): 0.19 | relative viability ([11]; first compound 0.4 µM): 0.232 | relative viability ([11]; first compound 1.265 µM): 0.106 | relative viability ([11]; first compound 4 µM): 0.0948
